# From PubChem BioAssay AID330 (DTP/NCI, 2004)
# Values joined by “and” are separate entries in the source; they are usually repeats but may differ in a detail not shown here. Equal values may be shown once. Inconclusive results and toxic doses are left out. Peptide text beside a SMILES is read from it. * marks the point of attachment. Trt = c1ccc(C(c2ccccc2)(c2ccccc2)*)cc1; Boc = CC(C)(C)OC(=O)*; Bn = c1ccc(C*)cc1
# System: P388 leukemia ip, CD2F1 mice, survival T/C
# Assay: NCI In Vivo Anticancer Drug Screen. Data for tumor model P388 Leukemia (intraperitoneal) in CD2F1 (CDF1) mice
# Conditions: endpoint: median survival time, higher = longer survival
# In short: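 Mice carrying the transplanted tumor received test compound or vehicle. Survival was recorded in each group, and the value is the treated-group measurement divided by that of the vehicle-treated control group.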
# [1] = dose: 6.25 mg/kg/injection, schedule: Q01DX009 (ip), vehicle: Klucel (hydroxypropylcellulose) (HPC)
# [2] = dose: 12.5 mg/kg/injection, schedule: Q01DX009 (ip), vehicle: Klucel (hydroxypropylcellulose) (HPC)
# [3] = dose: 25.0 mg/kg/injection, schedule: Q01DX009 (ip), vehicle: Klucel (hydroxypropylcellulose) (HPC)
# [4] = dose: 50.0 mg/kg/injection, schedule: Q01DX009 (ip), vehicle: Klucel (hydroxypropylcellulose) (HPC)
# [5] = dose: 100.0 mg/kg/injection, schedule: Q01DX009 (ip), vehicle: Klucel (hydroxypropylcellulose) (HPC)
# [6] = dose: 200.0 mg/kg/injection, schedule: Q01DX009 (ip), vehicle: Klucel (hydroxypropylcellulose) (HPC)
# [7] = dose: 50.0 mg/kg/injection, schedule: Q01DX001 (ip), vehicle: Klucel (hydroxypropylcellulose) (HPC)
# [8] = dose: 100.0 mg/kg/injection, schedule: Q01DX001 (ip), vehicle: Klucel (hydroxypropylcellulose) (HPC)
# [9] = dose: 200.0 mg/kg/injection, schedule: Q01DX001 (ip), vehicle: Klucel (hydroxypropylcellulose) (HPC)
# [10] = dose: 50.0 mg/kg/injection, schedule: Q01DX005 (ip), vehicle: Klucel (hydroxypropylcellulose) (HPC)
# [11] = dose: 100.0 mg/kg/injection, schedule: Q01DX005 (ip), vehicle: Klucel (hydroxypropylcellulose) (HPC)
# [12] = dose: 200.0 mg/kg/injection, schedule: Q01DX005 (ip), vehicle: Klucel (hydroxypropylcellulose) (HPC)
# [13] = dose: 60.0 mg/kg/injection, schedule: Q01DX005 (ip), vehicle: saline with Tween-80
# [14] = dose: 120.0 mg/kg/injection, schedule: Q01DX005 (ip), vehicle: saline with Tween-80
# [15] = dose: 240.0 mg/kg/injection, schedule: Q01DX005 (ip), vehicle: saline with Tween-80
# [16] = dose: 50.0 mg/kg/injection, schedule: Q01DX005 (ip), vehicle: saline
# [17] = dose: 100.0 mg/kg/injection, schedule: Q01DX005 (ip), vehicle: saline
# [18] = dose: 50.0 mg/kg/injection, schedule: Q01DX005 (ip), vehicle: saline with Tween-80
# [19] = dose: 100.0 mg/kg/injection, schedule: Q01DX005 (ip), vehicle: saline with Tween-80
# [20] = dose: 200.0 mg/kg/injection, schedule: Q01DX005 (ip), vehicle: saline with Tween-80
# [21] = dose: 100.0 mg/kg/injection, schedule: Q04DX002 (ip), vehicle: saline
# [22] = dose: 200.0 mg/kg/injection, schedule: Q04DX002 (ip), vehicle: saline
# [23] = dose: 400.0 mg/kg/injection, schedule: Q04DX002 (ip), vehicle: saline
smiles,measurement,setting,value
O=c1[nH]c2c(c3c1CCCC3)CC1(CC2)OCCO1,T/C,"dose: 100.0 mg/kg/injection, schedule: Q04DX002 (ip), vehicle: Klucel (hydroxypropylcellulose) (HPC)",105 % of control
same,T/C,"dose: 200.0 mg/kg/injection, schedule: Q04DX002 (ip), vehicle: Klucel (hydroxypropylcellulose) (HPC)",100 % of control
same,T/C,"dose: 400.0 mg/kg/injection, schedule: Q04DX002 (ip), vehicle: Klucel (hydroxypropylcellulose) (HPC)",108 % of control
C=C(CC(N)=O)C(N)C(=O)O (configuration not stated),T/C,"dose: 60.0 mg/kg/injection, schedule: Q01DX005 (ip), vehicle: saline",100 % of control
same,T/C,"dose: 120.0 mg/kg/injection, schedule: Q01DX005 (ip), vehicle: saline",100 % of control
same,T/C,"dose: 240.0 mg/kg/injection, schedule: Q01DX005 (ip), vehicle: saline",100 % of control
O=c1[nH]c(Sc2ccccn2)ccc1[N+](=O)[O-],T/C,[1],97 % of control
same,T/C,[2],91 % of control
same,T/C,[3],98 % of control and 92 % of control
CC(C)CSc1nc2ccc(N=Cc3ccccc3O)cc2s1,T/C,[4],94 % of control
same,T/C,[5],92 % of control
same,T/C,[6],89 % of control
CN1CCN(CCCN(c2cccc(C(F)(F)F)c2)c2cccc(C(F)(F)F)c2)CC1,T/C,[7],100 % of control
same,T/C,[8],98 % of control
same,T/C,[9],92 % of control
O=C(CCCN1CCN(c2cc3ccccc3cn2)CC1)c1ccc(F)cc1,T/C,"dose: 12.5 mg/kg/injection, schedule: Q01DX005 (ip), vehicle: Klucel (hydroxypropylcellulose) (HPC)",109 % of control
same,T/C,"dose: 25.0 mg/kg/injection, schedule: Q01DX005 (ip), vehicle: Klucel (hydroxypropylcellulose) (HPC)",109 % of control
same,T/C,[10],110 % of control and 115 % of control
CCOC(=O)CNC(=O)C(CSCc1ccccc1)NC(=O)C(CSC(c1ccccc1)(c1ccccc1)c1ccccc1)NC(=O)OC(C)(C)C (configuration not stated) (Boc-Cys(Trt)-Cys(Bn)-Gly-OEt; configuration not given here),T/C,[10],101 % of control
same,T/C,[11],101 % of control
same,T/C,[12],99 % of control
COC(=O)c1sc(N2CCCC2)nc1N,T/C,[13],102 % of control
same,T/C,[14],99 % of control
same,T/C,[15],97 % of control
O=[N+]([O-])c1cccnc1S(=O)(=O)c1ccccn1,T/C,[1],100 % of control
same,T/C,[2],100 % of control
CCCCc1c(C#N)c(=O)n2c(N)c(C#N)cnc2c1SC,T/C,[13],93 % of control
same,T/C,[14],93 % of control
same,T/C,[15],87 % of control
CCN1CC2C3CCC(C)(O3)C2C1 (configuration not stated),T/C,[16],99 % of control
same,T/C,[17],98 % of control
same,T/C,"dose: 200.0 mg/kg/injection, schedule: Q01DX005 (ip), vehicle: saline",101 % of control
N#Cc1ccc(NC(=O)Nc2nncs2)cc1,T/C,"dose: 12.5 mg/kg/injection, schedule: Q01DX009 (ip), vehicle: distilled water + Tween-80",115 % of control and 116 % of control
same,T/C,"dose: 25.0 mg/kg/injection, schedule: Q01DX009 (ip), vehicle: distilled water + Tween-80",122 % of control
same,T/C,"dose: 200.0 mg/kg/injection, schedule: Q01DX009 (ip), vehicle: distilled water + Tween-80",104 % of control
NCCCCC(C(=O)NC(CO)C(=O)O)N(C(=O)OCc1ccccc1)C(=O)OCc1ccccc1 (configuration not stated),T/C,[18],101 % of control
same,T/C,[19],101 % of control
same,T/C,[20],90 % of control
OCCNCCNc1ccnc2c1ccc1ccccc12,T/C,[18],105 % of control
COc1c(CCl)cc(-c2sc3ccccc3c(=O)c2CCl)cc1CCl,T/C,"dose: 25.0 mg/kg/injection, schedule: Q01DX005 (ip), vehicle: saline with Tween-80",106 % of control and 93 % of control
same,T/C,[18],100 % of control and 114 % of control and 97 % of control
same,T/C,[19],100 % of control and 106 % of control
same,T/C,[20],108 % of control and 124 % of control
Cc1c(NC(=S)Nc2ccccc2C(F)(F)F)c(=O)n(-c2ccccc2)n1C,T/C,[4],92 % of control
same,T/C,[5],96 % of control
same,T/C,[6],100 % of control
Cc1cccc(NC(N)=S)n1,T/C,"dose: 12.5 mg/kg/injection, schedule: Q01DX009 (ip), vehicle: other",108 % of control
same,T/C,"dose: 25.0 mg/kg/injection, schedule: Q01DX009 (ip), vehicle: other",98 % of control
same,T/C,"dose: 50.0 mg/kg/injection, schedule: Q01DX009 (ip), vehicle: other",115 % of control
same,T/C,"dose: 100.0 mg/kg/injection, schedule: Q01DX009 (ip), vehicle: other",119 % of control
O=C1C=CC2(CC=CCC2)CC1 (configuration not stated),T/C,[1],110 % of control
same,T/C,"dose: 12.5 mg/kg/injection, schedule: Q01DX008 (ip), vehicle: Klucel (hydroxypropylcellulose) (HPC)",101 % of control
same,T/C,[2],108 % of control
same,T/C,"dose: 25.0 mg/kg/injection, schedule: Q01DX008 (ip), vehicle: Klucel (hydroxypropylcellulose) (HPC)",100 % of control
same,T/C,[3],100 % of control
same,T/C,[4],121 % of control
same,T/C,[5],109 % of control
same,T/C,[6],110 % of control
CC(=O)NC(C(=O)N1CCCC1)=C(C)C,T/C,[21],100 % of control
same,T/C,[22],98 % of control
same,T/C,[23],107 % of control
CN1CCC(OC(=O)c2ccco2)CC1,T/C,"dose: 50.0 mg/kg/injection, schedule: Q04DX003 (ip), vehicle: saline",101 % of control
same,T/C,"dose: 100.0 mg/kg/injection, schedule: Q04DX003 (ip), vehicle: saline",100 % of control
same,T/C,"dose: 200.0 mg/kg/injection, schedule: Q04DX003 (ip), vehicle: saline",99 % of control
Cc1nc2ncn(-c3ccccc3)c2c(=O)n1CC(C)C,T/C,[10],100 % of control
same,T/C,[11],101 % of control
same,T/C,[12],102 % of control
Nn1c(-c2nn[nH]n2)nnc1-c1nn[nH]n1 (tested in a mixture with another compound),T/C,[7],109 % of control
same,T/C,[8],107 % of control
same,T/C,[9],103 % of control
CC(CCCN(CCCl)CCCl)Nc1ccnc2cc(Cl)ccc12 (configuration not stated),T/C,"dose: 0.12 mg/kg/injection, schedule: Q01DX009 (ip), vehicle: saline + alcohol",100 % of control
same,T/C,"dose: 0.5 mg/kg/injection, schedule: Q01DX009 (ip), vehicle: saline sonified",155 % of control
same,T/C,"dose: 0.66 mg/kg/injection, schedule: Q01DX009 (ip), vehicle: saline",159 % of control
same,T/C,"dose: 1.0 mg/kg/injection, schedule: Q01DX009 (ip), vehicle: saline sonified",155 % of control
same,T/C,"dose: 1.5 mg/kg/injection, schedule: Q01DX009 (ip), vehicle: saline",159 % of control
same,T/C,"dose: 2.0 mg/kg/injection, schedule: Q01DX009 (ip), vehicle: saline sonified",105 % of control
C=C1CC2(OC1=O)C1CC3CC(C1)CC2C3 (configuration not stated),T/C,[21],99 % of control
same,T/C,[22],98 % of control
same,T/C,[23],99 % of control
COCc1ccc2c(c1)C(O)NC(=O)O2 (configuration not stated),T/C,[18],102 % of control
same,T/C,[19],107 % of control
same,T/C,[20],109 % of control
same,T/C,"dose: 400.0 mg/kg/injection, schedule: Q01DX005 (ip), vehicle: saline with Tween-80",117 % of control
CCC1CCCC[N+]1(C)[B-](F)(F)F (configuration not stated),T/C,[16],105 % of control
same,T/C,[17],107 % of control
CCCCCCCCCCCCCCCc1c(NC(C)(CC(C)(C)O)[P+](=O)O)c(=O)n(C)n1C (configuration not stated),T/C,"dose: 50.0 mg/kg/injection, schedule: Q01DX009 (ip), vehicle: saline",96 % of control
same,T/C,"dose: 100.0 mg/kg/injection, schedule: Q01DX009 (ip), vehicle: saline",88 % of control
